In patent US7727526B2, “Use of PTHrP antagonists for treating renal cell carcinoma” (Universite Louis Pasteur, priority 2002, dated 2010):
Entries after “also recorded” stand apart in the source; their conditions may differ.

How the values were obtained:
[1] = tested on: tumour cells 786-0; experiment: Cell proliferation of 786-0 tumour cells (cell count and BrdU incorporation); format: cell-based, human; conditions: antagonist at different concentrations, medium without serum, 48 hrs
Description: (§1) The cells were cultured in plates with 24 wells (1 ml per well) and in plates with 96 well (100 μl per well) at the rate of 10,000 to 30,000 C/ml. The cells were cultivated in the medium with serum described above. For the assays with the RPTH1 antagonists, after 24 hrs of culture, the medium was changed for a medium without serum containing 0.1% BSA (bovine serum albumin, Sigma) and the antibiotics. This manipulation facilitates cultivation of the cells in the absence of the factors present in the serum and facilitates assessment of the influence of the antagonist on cell proliferation. […]
(§2) The cell proliferation was determined by two means, on the one hand by counting the cells (manual counting) using plates with 24 wells and on the other hand by measuring the incorporation of 5-bromo-2′-deoxyuridine (BrdU) using plates with 96 wells.
(§3) The culture medium is removed by suction and an adequate volume of trypsin-EDTA (Sigma) is added. […] The cells are then recovered and manually counted with a counting cell placed under an optic microscope. […]
(§4) For the experiments in vitro, the results of the manual counts are expressed as a percentage of the number of cells present in the control wells. […] The incorporations in response to the treatments are thus expressed as a percentage of the incorporations of positive controls taken as 100% incorporation. […]

[2] = tested on: tumour cells UOK-126; experiment: Cell proliferation of UOK-126 tumour cells (cell count and BrdU incorporation); format: cell-based, human; conditions: different concentrations, medium without serum, 48 hrs
Description: as §1, §2, §3, §4

[3] = tested on: tumour cells UOK-128; experiment: Cell proliferation of UOK-128 tumour cells (cell count and BrdU incorporation); format: cell-based, human; conditions: different concentrations, medium without serum, 48 hrs
Description: as §1, §2, §3, §4

[4] = tested on: tumour cells 786-0; experiment: Analysis of cell death/apoptosis (detachment, OA/EB staining, DNA laddering); format: cell-based, human; conditions: 48 hrs
Description: The cells were treated under control conditions or with either an anti-PTHrP N-terminal antibody at 1.5 μg/ml or a RPTH1 antagonist at 1 μM for 48 hrs. The orange acridine (OA) and the ethidium bromide (EB) were dissolved in a PBS buffer and added at 2 μg/ml in the culture medium. The cells were observed and photographed under fluorescence microscopy, either for the FITC (OA) or for the TRITC (EB). The fragmentation of the internucleosomal DNA was detected by a “DNA laddering” test. The cells were re-suspended in 300 μl of lysis buffer (25 mM EDTA, 1% SDS, 1 mg/ml proteinase K, pH 8) and incubated overnight at 50° C. DNA was extracted by phenol/chloroform, precipitated with ethanol and analysed by electrophoresis on agarose gel.

[5] = tested on: 786-0 cells implanted subcutaneously; experiment: Pilot protocol: subcutaneous 786-0 tumours in nude mouse, twice weekly injections; format: in vivo; conditions: for growth of implanted tumours: twice weekly i.p. and intratumoural injections, 25 days (antibody stopped after 18 days), versus control
Description: (§5) The 786-0 cells were cultivated in the RPMI 1640 medium supplemented with serum until confluence. The cells were recuperated by trypsination and re-suspended in RPMI 1640 medium without serum and without antibiotics at the rate of 5 million cells/200 μl the same day of implantation of the mice. The cells were implanted subcutaneously in the backs of nude mice at the rate of 200 μl per implantation. A week to 10 days after the implantation of the cells, the tumours developed forming nodules of approximately 60 to 300 mm^3. From this moment, the treatments were initiated according to three protocols: a pilot protocol which was performed in order to determine the effectiveness of the treatments in vivo and carried out on two mice per experimental condition receiving 4 implantations (namely 8 tumours/experimental condition) and two experimental protocols elaborated following the results obtained with the pilot protocol on 10 or 5 mice per experimental condition and receiving 1 or 2 implantations (namely 10 tumours/experimental condition).
Pilot Protocol. In this protocol, 6 mice were separated into three groups: a first group receiving injections of sterile water (control), a second group receiving injections of anti-PTHrP (1-34) antibody (Bachem, dissolved in sterile water) and a third group receiving injections of antagonist (Asn10, Leu11, D-Trp12)PTHrP(7-34) amide (Bachem, dissolved in sterile water). All injections were performed 2 times per week intra-peritoneally (50 μg/mouse of antibody or 20 μg/mouse of antagonist in 200 μl) and in intra-tumoural terms (25 μg/mouse of antibody or 10 μg/mouse of antagonist in […]). […] The volume of the tumours (length×width×depth×0.5236) was manually measured in a blind manner with callipers on days 0, 4, 7, 12, 14, 18, 23 and 25 after the first injection of the compounds under light gas anaesthesia with isoflurane. […]
(§6) For the experiments in vivo in the nude mouse, the results of tumour growths were expressed as a percentage of the size at day 0 of the treatments. The results are expressed as a mean +/−ESM. […]

[6] = tested on: 786-0 cells implanted subcutaneously; experiment: First experimental protocol: subcutaneous 786-0 tumours in nude mouse, daily RPTH1 antagonist; format: in vivo
Description: as §5
First Experimental Protocol. […] Consequently, in this protocol, on the one hand the numbers in each group were increased (10 mice with a tumour/experimental group) and on the other hand daily injections either of water (control) or of the RPTH1 antagonist (dissolved in sterile water) were performed. As for the pilot protocol, all the injections were performed intraperitoneally (200 μl water or 20 μg/mouse of antagonist in 200 μl) and intratumourally (100 μl of water or 10 μg/mouse of antagonist in 100 μl). For this series, the size of the tumours was measured in a blind way twice a week under light gas anaesthesia with isoflurane. At the end of the experimental period, the mice were anaesthetised with pentobarbital. Approximately 0.5 ml of blood was then recovered rapidly through intracardiac puncture of each mouse for the dosage of electrolytes and circulating PTHrP. The tumours were dissected and fixed in formol for subsequent histo-pathological studies (necrotic aspect) and immunohistochemical studies (factor VIII, PTHrP, RPTH1, mitotic index and apoptotic index).
Proliferative and Apoptotic Index. The proliferation index was determined by coloration of tumour section with a monoclonal mouse antibody anti-Ki67 human, Dako, Trappes, France) using standard methods. The detection kit of apoptotic cells based upon the TUNEL method (Roche Diagnostics) was used to measure the apoptotic index on the sections. The total cells and those coloured in 15 fields (0.25 mm^2 each) of the highest cell coloration were counted in order to determine the two indexes which are expressed as a percentage of coloured cells in relation to total cells.
Factor VIII and Microvascular Density. The tumour sections were coloured for the endothelial cells with a rabbit polyclonal antibody anti-human […], (Dako) using standard methods. The density of the micro-vessels was determined by counting the intersection points between vessels and the total number of vessels of 4 to 5 fields (0.25 mm^2 each) showing the highest vascular density.
as §6

[7] = daily antagonist, treated versus control group

For “(Asn10, Leu11, D-Trp12)PTHrP(7-34) amide (human, rat) [RPTH1 antagonist]”, the “inhibition of cell proliferation” value [1] was 70%, the “effect of antagonist on cell proliferation” value [2] was “inhibit very strongly” and the “effect of antagonist on cell proliferation” value [3] was “strongly inhibit”. The “number of cells marked by EB (cell death)” value ([4]; 1 μM, compared with non-treated cells) was “clearly increases”, the “cell adherence to the culture support” value ([4]; 10^−6 M, RPMI 1640 without serum) was “detaching the cells from the culture support” and the “growth of implanted tumours” value [5] was “blocks the growth”. The “growth of implanted tumours” value ([5]; listed as antagonist) was “considerably slowed-down growth; also recorded: greatly slow down tumour growth”, the “first day of significant tumour growth in comparison to day 0” value ([5]; twice weekly treatment, control significant from day 7) was 12 days and the “apoptotic index (TUNEL) of tumours” value [6, 7] was “increased twofold”. For the same substance, the “histopathological analysis of tumours” value [6, 7] was “No polymorphic difference”, the “number of intersection points of the vessels and total number of vessels per surface area” value [6, 7] was “significantly increased” and the “proliferation index (Ki67) of tumours” value [6, 7] was “not different”. The “growth of implanted tumours” value ([6]; daily i.p. 20 μg/mouse and intratumoural 10 μg/mouse, 17 days, versus control) was “totally inhibited; also recorded: completely blocks the tumour growth”.
